What was measured:
[1] = system: miR-203 and miR-542-3p expression levels; test: qRT-PCR (TaqMan miRNA assays) of miRNA levels after mimic transfection; format: cell-based, human; details: SKBR3.B3.1 and SKBR3.B3.2 cells, 24 hrs, normalized to RNU6B, vs control mimic
From the text: (§1) FIGS. 1A-B. Transfection of the mimics of miR-203 and/or miR-542-3p dramatically increases their expression levels and specifically down-regulates Survivin, but not other functionally related molecules, such as Mcl-1 and Bcl-xL. SKBR3.B3.1 and […] cells were transfected with either control miRNA mimic, or miR-203 mimic, or miR-542-3p mimic alone, or the combination of miR-203 and miR-542-3p mimics for 24 hrs. (FIG. 1A) Cells were collected and subjected to total RNA extraction, inclusive of the small RNA fraction. The expression levels of miR-203 and miR-542-3p were measured by qRT-PCR using TaqMan miRNA assays. All results were normalized with the internal control RNU6B. Bars, SD. […] (FIG. 1B) Cells were collected and subjected to western blot analyses with specific antibodies directed against Survivin, Mcl-1, Bcl-xL, or β-actin. The densitometry analyses of Survivin signals were shown underneath, and the arbitrary numbers indicate the intensities of each cell line relative to controls, defined as 1.0.
Analysis of miRNA expression. […] The expression levels of miR-203 and miR-542-3p were then measured by quantitative real-time (qRT)-PCR using TaqMan MicroRNA Assays (Assay ID: 000507 and 001284, respectively; Applied Biosystems). […] The relative miRNA levels were calculated using the comparative Ct method (AACt) as reported (Howe et al., 2011). […]

Mcl-1 = test: Western blot of Mcl-1 protein after miRNA mimic transfection; format: cell-based, human; details: SKBR3.B3.1 and SKBR3.B3.2 cells, mimic transfection 24 hrs
From the text: as §1, with “The densitometry analyses of Survivin signals were shown underneath, and the arbitrary numbers indicate the intensities of each cell line relative to controls, defined as 1.0.” left out
(§2) Western blot analysis. Protein expression levels were determined by western blot analysis as described previously (Wang et al., 2010; Huang et al., 2009; Huang et al., 2011). […] After the blots were incubated with horseradish peroxidase-labeled secondary antibody, the signals were detected using the enhanced chemiluminescence reagents (GE Healthcare Bio-Sciences Corp., Piscataway, N.J.).

HCC cells = details: expression of miR-203 in HCC cells lacking their expression; cited from earlier work
Bcl-xL = test: Western blot of Bcl-xL protein after miRNA mimic transfection; format: cell-based, human; details: SKBR3.B3.1 and SKBR3.B3.2 cells, mimic transfection 24 hrs
From the text: as §1, with “The densitometry analyses of Survivin signals were shown underneath, and the arbitrary numbers indicate the intensities of each cell line relative to controls, defined as 1.0.” left out
as §2

[2] = system: PARP cleavage and caspase-3 activation; test: Western blot of PARP cleavage and cleaved caspase-3 after mimic transfection plus paclitaxel; format: cell-based, human; details: SKBR3.B3.1 and SKBR3.B3.2 cells, mimic 24 hrs then paclitaxel 24 hrs; for paclitaxel-induced PARP cleavage and caspase-3 activation (cleaved caspase-3): vs paclitaxel alone in control mimic transfection
From the text: (FIGS. 3A-B) SKBR3.B3.1 and SKBR3.B3.2 cells were transfected with either control miRNA mimic, or miR-203 mimic, or miR-542-3p mimic alone, or the combination of miR-203 and miR-542-3p mimics for 24 hrs. Cells were then untreated or treated with paclitaxel for another 24 hrs. Cells were collected and subjected to western blot analyses of PARP, cleaved caspase-3 (C-Caps-3), β-actin (FIG. 3A), or a specific apoptotic ELISA (FIG. 3B). C & D, BT474-HR20 cells were transfected with either control miRNA mimic, or miR-203 mimic, or miR-542-3p mimic alone, or the combination of miR-203 and miR-542-3p mimics for 24 hrs. Cells were then untreated or treated with paclitaxel for another 24 hrs. Cells were collected and subjected to western blot analyses of PARP, cleaved caspase-3 (C-Caps-3), or β-actin (FIG. 3C), or a specific apoptotic ELISA (FIG. 3D).
(§3) Transfection of cells with miRNA mimic. Cell transfection with the miRIDIAN miRNA mimics or negative controls was carried out using HiPerFect Transfection Reagent (QIAGEN) according to the manufacturer's protocol.
(§4) Western blot analysis. Protein expression levels were determined by western blot analysis as described previously (Wang et al., 2010; Huang et al., 2009; Huang et al., 2011). Equal amounts of total cell lysates were boiled in Laemmli SDS-sample buffer, resolved by SDS-PAGE, transferred to nitrocellulose membrane (Bio-Rad Laboratories, Hercules, Calif.), and probed with the primary antibodies described in the figure legends. After the blots were incubated with horseradish peroxidase-labeled secondary antibody, the signals were detected using the enhanced chemiluminescence reagents (GE Healthcare Bio-Sciences Corp., Piscataway, N.J.).

Survivin [3] = test: Western blot of Survivin protein after miRNA mimic transfection in erbB2+ breast cancer cells; format: cell-based, human; details: mimic transfection 24 hrs
From the text: as §1
MDA-MB-453 and BT474 cells (FIG. 2A), and BT474-HR20 cells (FIG. 2B) were transfected with either control miRNA mimic, or miR-203 mimic, or miR-542-3p mimic alone, or the combination of miR-203 and miR-542-3p mimics for 24 hrs. Cells were then collected and subjected to western blot analyses with specific antibodies directed against Survivin, Mcl-1, Bcl-xL, or β-actin. The densitometry analyses of Survivin signals were shown underneath, and the arbitrary numbers indicate the intensities of each cell line relative to controls, defined as 1.0.
as §3, §4

18rRNA = details: overexpression of miR-542-3p; cited from earlier work
[4] = system: cancer cell proliferation; details: ectopic expression; through G1 and G2/M cell cycle arrest; cited from earlier work
Survivin [5] = details: cells transfected with miR-542-3p mimics vs negative control-transfected cells; cited from earlier work
[6] = system: Src-transformed fibroblasts and human cancer cells; details: ectopic expression in Src-transformed fibroblasts and human cancer cells; cited from earlier work
[7] = MDA-MB-453, BT474 and BT474-HR20 cells
[8] = SKBR3.B3.1 and SKBR3.B3.2 cells, vs control mimic

Substance	expression levels of miR-203 and/or miR-542-3p following mimic(s) transfection [1]	effect on MCl-1 protein (Mcl-1)	cell growth (HCC cells)	effect on BCl-xL protein (Bcl-xL)	paclitaxel-induced PARP cleavage and caspase-3 activation (cleaved caspase-3) [2]	protein levels of Survivin (Survivin [3]; [7])	protein levels of Survivin (Survivin [3]; [8])	18rRNA levels (18rRNA)	cancer cell proliferation [4]	gene down-regulation in microarray analysis (Survivin [5])	enhancement of paclitaxel-induced PARP cleavage and caspase-3 activation compared with the other single mimic [2]	inhibition on Survivin compared with the other single mimic (Survivin [3]; SKBR3.B3.1 and SKBR3.B3.2 cells)	tumor growth [6]
miR-203: miRIDIAN miRNA specific mimic of miR-203 (sequence GUGAAAUGUUUAGGACCACUAG, MIMAT0000264), purchased from Thermo Scientific Dharmacon (commercial miRIDIAN mimic, chemistry not given here)	dramatically increased	no effect	inhibited cell growth	no effect	clearly enhanced paclitaxel-induced PARP cleavage	able to down-regulate Survivin	clearly reduced the protein levels of Survivin	–	–	–	–	–	–
miR-542-3p: miRIDIAN miRNA specific mimic of miR-542-3p (sequence UGUGACAGAUUGAUAACUGAAA, MIMAT0003389), purchased from Thermo Scientific Dharmacon (commercial miRIDIAN mimic, chemistry not given here)	dramatically increased	no effect	–	no effect	clearly enhanced paclitaxel-induced PARP cleavage	able to down-regulate Survivin	clearly reduced the protein levels of Survivin	significantly decreased	inhibited cancer cell proliferation	most down-regulated candidate gene was Survivin	more profound effects than miR-203	more profound inhibition on Survivin than miR-203	suppresses tumor growth

Source: patent US20140051744A1, “Markers For Assessing the Susceptibility of Cancer to Survivin-Targeting miRNA Treatment” (The Regents of the University of Colorado, A Body Corporate, priority 2012, published 2014)
